According to patent US20230357708A1, “BI[…] PARA-HYDROXYBENZOIC ACID FROM METHANOL AND METHANE” (The Board of Trustees of the Leland Stanford Junior …, priority 2020, published 2023):

Assays:
[1] = test system: M. buryatense 5GB1 (5G) strain; assay: 4HBA toxicity test, streaks on plates with horizontal 4HBA-gradient; format: cell-based, Methylotuvimicrobium buryatense; conditions: background-strain streaks, 4HBA-gradient 0-10 mM, pH 8.9
Protocol: (§1) Fast growers were mutants with changed 4HBA-operon sequence. Fast-growing mutant #1 produced some 4HBA. […] The toxic conditions in turn favoured re-arrangement and/or point mutations of the plasmid. Streaks of the transconjugants on solid medium without methanol, grew comparatively well The solid medium was supplemented with nutrient broth, NMS2.1kan and MeOH. Toxicity tests with varying 4HBA concentrations was performed.

[2] = test system: M. alcahphilum 20Z strain; assay: as above; format: cell-based, Methylomicrobium alcaliphilum; conditions: background-strain streaks, 4HBA-gradient 0-10 mM, pH 8.9
Protocol: as §1

O=C(O)c1ccc(O)cc1 [4HBA, para-hydroxybenzoic acid]
effect of 4HBA on growth [1]: significant inhibitory effect | effect of 4HBA on growth compared with the M. alcahphilum 20Z strain [1]: more severely affected | effect of 4HBA on growth [2]: significant inhibitory effect
